Measurements from paper PMC9240326, “BacPROTACs mediate targeted protein degradation in bacteria” (Cell, 2022).
Where a SMILES comes first, the peptide text is derived from it. [ ]: non-standard residue; d: D form. Phe(βR-OMe) = CO[C@H](c1ccccc1)[C@H](N)C(=O)O; NMeL = CN[C@@H](CC(C)C)C(=O)O; NMeK = CN[C@@H](CCCCN)C(=O)O

Columns and labels:
[1] = biological target: B. subtilis ClpCP protease (Bacillus subtilis, UniProt P37571); assay type: biochemical
[2] = biological target: BRDTBD1 (Homo sapiens, UniProt Q58F21); assay: Wes analysis of BRDTBD1 levels in M. smegmatis; assay type: cell-based; settings: 30 min of incubation, relative to DMSO
[3] = biological target: ClpC1NTD (Mycolicibacterium smegmatis, UniProt A0R574); assay: biochemical; assay type: binding, Mycobacterium smegmatis
[4] = Solubility in aqueous solutions (remark in ITC method); assay type: physicochemical

Chain of B. subtilis ClpCP protease (P80244 whole entry): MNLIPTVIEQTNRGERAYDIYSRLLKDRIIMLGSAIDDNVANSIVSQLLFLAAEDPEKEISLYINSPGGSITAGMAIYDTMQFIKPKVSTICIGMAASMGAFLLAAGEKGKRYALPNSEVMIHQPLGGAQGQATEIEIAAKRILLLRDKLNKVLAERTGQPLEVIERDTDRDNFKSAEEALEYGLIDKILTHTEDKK
Chain of B. subtilis ClpCP protease (P37571 whole entry): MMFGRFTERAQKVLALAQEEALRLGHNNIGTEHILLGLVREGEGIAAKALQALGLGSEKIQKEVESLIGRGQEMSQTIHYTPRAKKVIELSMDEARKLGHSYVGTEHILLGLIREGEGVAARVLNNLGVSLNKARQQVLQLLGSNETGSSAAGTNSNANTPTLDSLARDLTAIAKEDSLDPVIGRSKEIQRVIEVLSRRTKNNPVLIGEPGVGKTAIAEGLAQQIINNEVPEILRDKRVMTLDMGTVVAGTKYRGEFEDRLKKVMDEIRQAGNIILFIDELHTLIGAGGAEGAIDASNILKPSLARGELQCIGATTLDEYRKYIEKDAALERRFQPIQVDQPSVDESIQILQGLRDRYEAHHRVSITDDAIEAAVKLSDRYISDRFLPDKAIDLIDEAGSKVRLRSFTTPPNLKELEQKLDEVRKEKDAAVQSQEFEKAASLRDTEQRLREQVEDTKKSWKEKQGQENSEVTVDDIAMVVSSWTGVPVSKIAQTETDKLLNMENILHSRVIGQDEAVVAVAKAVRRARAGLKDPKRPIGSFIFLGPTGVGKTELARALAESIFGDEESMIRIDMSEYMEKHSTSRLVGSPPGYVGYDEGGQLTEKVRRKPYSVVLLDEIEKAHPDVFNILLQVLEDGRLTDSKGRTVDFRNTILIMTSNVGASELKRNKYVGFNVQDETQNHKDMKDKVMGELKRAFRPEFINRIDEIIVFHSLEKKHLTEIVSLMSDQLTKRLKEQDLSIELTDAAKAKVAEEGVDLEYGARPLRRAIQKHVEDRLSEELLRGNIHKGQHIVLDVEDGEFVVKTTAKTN
Chain of ClpC1NTD (A0R574 1-148 limits assumed): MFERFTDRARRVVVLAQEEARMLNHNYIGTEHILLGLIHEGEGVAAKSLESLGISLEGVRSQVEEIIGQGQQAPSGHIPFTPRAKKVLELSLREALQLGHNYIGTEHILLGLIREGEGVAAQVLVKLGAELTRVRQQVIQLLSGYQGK

SMILES | mSA-Kre degradation by ClpCP, BacPROTAC-1 analogs [1] | BRDTBD1 levels in M. smegmatis (Wes) [2] | Kd [3] [nM] | Solubility in aqueous solutions [4]
CC(=O)NC(CCCNC(=N)N)C(=O)NCCOCCOCCC(=O)NCCOCCOCCC(=O)NCCOCCOCCC(=O)NC(CCCCNC(=O)CCCCC1SCC2NC(=O)NC21)C(N)=O (stereo not shown) [BacPROTAC-1c] | did not induce substrate degradation |  |  | 
CC[C@H](C)[C@@H]1NC(=O)[C@H](CC(C)C)N(C)C(=O)[C@H](C(C)C)NC(=O)[C@H]([C@H](OC)c2ccccc2)NC(=O)[C@H](C)NC(=O)[C@H](CCCCN)N(C)C(=O)[C@H](Cc2c[nH]c3ccccc23)NC1=O [sCym-1] (cyclo(W[NMeK]A[Phe(βR-OMe)]V[NMeL]I)) |  | did not significantly alter BRDTBD1 levels | 810 | low solubility
